This is an account of results in patent publication US20250368627A1, “PYRAZOLESULFONAMIDES AS ANTITUMOR AGENTS” (Peloton Therapeutics, Inc., a fully owned subsidiary of …, priority 2019, published 2025).

Test [1] relates to HCT116 human colorectal carcinoma cells. As to the kind of experiment: CellTiter-Glo Luminescent Cell Viability Assay. It is filed as cell-based. The note with it: HCT-116, 72 h, 3 days. In outline:
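HCT116 cells were exposed for 3 days to compound in triplicate at final concentrations of 5 to 0.0002 […] (1:3 dilutions). Viability was read by CellTiter-Glo luminescence, and IC50 values were calculated.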

In test [2] the target is T1, DDB1DB/DCAF15 and RBM39 R1R2 complex (Homo sapiens, UniProt Q14498+Q66K64).
T1 construct: Amino acids 150 to 331 of RBM39 were cloned into pGEX4T3; GST (from vector pGEX4T3); TEV cleavage site (N); made in house; host or cells: DDB1DB/His-DCAF15: baculovirus/Sf9 co-expression; RBM39 R1R2: E. coli (pGEX4T3)
T1 sequence (Q66K64 whole entry, the tested form may be a part): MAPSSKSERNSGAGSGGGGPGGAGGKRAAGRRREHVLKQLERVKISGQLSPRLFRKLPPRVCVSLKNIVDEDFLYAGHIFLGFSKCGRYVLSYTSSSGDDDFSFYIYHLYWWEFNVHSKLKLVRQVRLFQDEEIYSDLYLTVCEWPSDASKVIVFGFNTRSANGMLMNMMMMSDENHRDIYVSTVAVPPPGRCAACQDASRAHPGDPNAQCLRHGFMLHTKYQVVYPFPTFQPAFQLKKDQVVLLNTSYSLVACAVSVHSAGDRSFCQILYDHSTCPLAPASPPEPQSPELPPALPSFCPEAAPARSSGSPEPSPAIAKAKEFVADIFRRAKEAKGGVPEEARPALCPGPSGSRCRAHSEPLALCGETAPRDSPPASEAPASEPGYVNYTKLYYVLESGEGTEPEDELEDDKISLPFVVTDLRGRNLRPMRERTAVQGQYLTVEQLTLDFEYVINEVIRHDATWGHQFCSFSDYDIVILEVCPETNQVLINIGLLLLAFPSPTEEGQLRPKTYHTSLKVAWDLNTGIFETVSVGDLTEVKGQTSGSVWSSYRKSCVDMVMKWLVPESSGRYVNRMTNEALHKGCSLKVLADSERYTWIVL
T1 sequence (Q14498 150-331): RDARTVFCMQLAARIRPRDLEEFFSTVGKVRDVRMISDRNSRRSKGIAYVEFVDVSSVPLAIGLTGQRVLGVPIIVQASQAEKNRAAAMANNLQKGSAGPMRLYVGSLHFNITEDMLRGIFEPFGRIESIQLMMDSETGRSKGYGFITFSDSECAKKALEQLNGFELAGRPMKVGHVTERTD
T1 sequence (Q16531 with tags, fused parts or gaps DEL396-708 partner): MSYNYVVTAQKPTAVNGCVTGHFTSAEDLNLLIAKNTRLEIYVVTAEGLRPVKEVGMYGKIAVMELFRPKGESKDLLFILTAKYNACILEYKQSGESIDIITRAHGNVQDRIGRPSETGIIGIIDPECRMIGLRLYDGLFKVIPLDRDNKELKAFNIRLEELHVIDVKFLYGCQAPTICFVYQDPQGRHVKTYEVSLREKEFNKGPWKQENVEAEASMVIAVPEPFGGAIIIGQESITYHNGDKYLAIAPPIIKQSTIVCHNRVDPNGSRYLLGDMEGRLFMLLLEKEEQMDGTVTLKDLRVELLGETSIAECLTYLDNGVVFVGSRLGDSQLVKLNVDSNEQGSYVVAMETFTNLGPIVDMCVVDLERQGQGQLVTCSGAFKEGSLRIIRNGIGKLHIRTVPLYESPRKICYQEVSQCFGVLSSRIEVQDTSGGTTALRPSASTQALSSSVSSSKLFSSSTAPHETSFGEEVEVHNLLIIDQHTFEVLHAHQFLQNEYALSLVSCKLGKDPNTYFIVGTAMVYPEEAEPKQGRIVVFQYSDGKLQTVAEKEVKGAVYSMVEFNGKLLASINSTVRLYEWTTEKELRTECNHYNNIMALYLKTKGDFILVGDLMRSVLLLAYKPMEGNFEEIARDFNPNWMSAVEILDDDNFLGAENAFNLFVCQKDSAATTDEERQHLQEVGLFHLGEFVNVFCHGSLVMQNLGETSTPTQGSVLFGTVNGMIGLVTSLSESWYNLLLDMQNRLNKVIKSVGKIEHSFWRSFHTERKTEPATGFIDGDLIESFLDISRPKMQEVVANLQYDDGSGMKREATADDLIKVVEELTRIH
As to the kind of experiment: DCAF15 RBM39 Complex Formation Assay (FRET). The class given is binding. The note with it: FRET ratio Em 665/Em 615, incubated overnight at 4° C. In outline:
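Ternary complex formation read by TR-FRET (Em 665/615, excitation 340 nm) after overnight incubation at 4° C of 20 nM baculovirus DDB1DB/His-DCAF15 and 50 nM E. coli RBM39 RRM1-RRM2 FLAG fragment with 14-point, 3-fold compound dilutions from 1 μM; EC50 from 4-parameter fit.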

Some results are limits rather than exact numbers.

As a reminder, the EC50 is the concentration that produces a half-maximal response. Usually IC50 stands for the concentration that inhibits the measured activity by half. Turning to `Cc1ccc(NS(=O)(=O)c2cnn(C)c2)c2[nH]cc(F)c12` [Compound 126, N-(3-fluoro-4-methyl-1H-indol-7-yl)-1-methyl-pyrazole-4-sulfonamide], the EC50 in test [1] was in the range of 250 to 1000 nM. Also, in test [2], the IC50 was in the range of 250 to 1000 nM.
As for `N#Cc1c[nH]c2c(NS(=O)(=O)c3cnn(CC(F)F)c3N)ccc(F)c12` [Compound 279, 5-amino-N-(4-cyano-4-fluoro-1H-indol-7-yl)-1-(2,2-difluoroethyl)pyrazole-4-sulfonamide], the EC50 in test [1] lay in the range of 250 to 1000 nM. Also, in test [2], the IC50 is under 250 nM.
Taken in the same sequence, the figures for `N#Cc1c[nH]c2c(NS(=O)(=O)c3cnn(C4CCNC4=O)c3)ccc(Cl)c12` (centres unmarked) [Compound 147, N-(4-chloro-3-cyano-1H-indol-7-yl)-1-(2-oxopyrrolidin-3-yl)pyrazole-4-sulfonamide] were over 1000 nM and under 250 nM.
Taken in the same sequence, the figures for `Cc1ccc(NS(=O)(=O)c2cnn(CCS(C)(=O)=O)c2)c2[nH]cc(C#N)c12` [Compound 67, N-(3-cyano-4-methyl-1H-indol-7-yl)-1-(2-methylsulfonylethyl)pyrazole-4-sulfonamide] were 250 to 1000 nM and under 250 nM.
With `Cc1ccc(NS(=O)(=O)c2cnn(CC(F)(F)F)c2)c2[nH]cc(C#N)c12` [Compound 60, N-(3-cyano-4-methyl-1H-indol-7-yl)-1-(2,2,2-trifluoroethyl)pyrazole-4-sulfonamide], in test [1], the EC50 is under 250 nM. For the same compound, the IC50 in test [2] was under 250 nM.
Consider `Cc1ccc(NS(=O)(=O)c2cnn(C(C)CCO)c2)c2[nH]cc(C#N)c12` (centres unmarked) [Compound 236, N-(3-cyano-4-methyl-1H-indol-7-yl)-1-(3-hydroxy-1-methyl-propyl)pyrazole-4-sulfonamide], for which the EC50 in test [1] was under 250 nM. Moreover, the IC50 in test [2] was under 250 nM.
As for `Cc1ccc(NS(=O)(=O)c2cnn(C[C@H](N)C(F)(F)F)c2)c2[nH]cc(C#N)c12` [Compound 249, 1-[(2S)-2-amino-3,3,3-trifluoro-propyl]-N-(3-cyano-4-methyl-1H-indol-7-yl)pyrazole-4-sulfonamide], in test [1], the EC50 is 250 to 1000 nM. Moreover, the IC50 in test [2] was under 250 nM.
On to `CC(C)(CO)n1ncc(S(=O)(=O)Nc2cccc3c(C#N)c[nH]c23)c1Cl` [Compound 251, 5-chloro-N-(3-cyano-1H-indol-7-yl)-1-(2-hydroxy-1,1-dimethyl-ethyl)pyrazole-4-sulfonamide], for which the EC50 in test [1] lay within 250 to 1000 nM. Moreover, in test [2], the IC50 was under 250 nM.
Take `Cc1ccc(NS(=O)(=O)c2cnn(CC(C)(C)O)c2)c2[nH]cc(C#N)c12` [Compound 108, N-(3-Cyano-4-methyl-1H-indol-7-yl)-1-(2-hydroxy-2-methyl-propyl)pyrazole-4-sulfonamide]: the EC50 in test [1] lay within 250 to 1000 nM. For the same compound, in test [2], the IC50 was under 250 nM.
Taken in the same sequence, the figures for `Cc1ccc(NS(=O)(=O)c2cnn([C@H](C)[C@@H](C)O)c2)c2[nH]cc(C#N)c12` [Compound 287, N-(3-cyano-4-methyl-1H-indol-7-yl)-1-[(1R,2R)-2-hydroxy-1-methyl-propyl]pyrazole-4-sulfonamide] were under 250 nM and under 250 nM.
The corresponding values for `N#Cc1c[nH]c2c(NS(=O)(=O)c3cnn(CCCO)c3)ccc(Cl)c12` [Compound 209, N-(4-chloro-3-cyano-1H-indol-7-yl)-1-(3-hydroxypropyl)-1H-pyrazole-4-sulfonamide] are 250 to 1000 nM and under 250 nM.
In the case of `CC1(n2ncc(S(=O)(=O)Nc3ccc(Cl)c4c(C#N)c[nH]c34)c2F)COC1` [Compound 130, N-(4-chloro-3-cyano-1H-indol-7-yl)-5-fluoro-1-(3-methyloxetan-3-yl)pyrazole-4-sulfonamide], the EC50 in test [1] was 250 to 1000 nM. In addition, the IC50 in test [2] is under 250 nM.
The corresponding values for `CC(C)(O)Cn1cc(S(=O)(=O)Nc2ccc(Cl)c3c(Cl)c[nH]c23)cn1` [Compound 177, N-(3,4-dichloro-1H-indol-7-yl)-1-(2-hydroxy-2-methyl-propyl)pyrazole-4-sulfonamide] are 250 to 1000 nM and under 250 nM.
Taken in the same sequence, the figures for `Cc1ccc(NS(=O)(=O)c2cnn(CC3(F)COC3)c2)c2[nH]cc(C#N)c12` [Compound 72, N-(3-cyano-4-methyl-1H-indol-7-yl)-1-[(3-fluorooxetan-3-yl)methyl]pyrazole-4-sulfonamide] were 250 to 1000 nM and under 250 nM.
Turning to `CC(C)n1cc(S(=O)(=O)Nc2cccc3c(Cl)c[nH]c23)cn1` [Compound 39, N-(3-chloro-1H-indol-7-yl)-1-isopropyl-pyrazole-4-sulfonamide], the EC50 in test [1] lay within 250 to 1000 nM. In test [2], the IC50 was under 250 nM.
Taken in the same sequence, the figures for `Cc1ccc(NS(=O)(=O)c2cnn(C3(CC#N)COC3)c2)c2[nH]cc(C#N)c12` [Compound 157, N-(3-cyano-4-methyl-1H-indol-7-yl)-1-[3-(cyanomethyl)oxetan-3-yl]pyrazole-4-sulfonamide] were 250 to 1000 nM and under 250 nM.
The corresponding values for `Cc1ccc(NS(=O)(=O)c2cnn(C)c2C)c2[nH]cc(C#N)c12` [Compound 113, N-(3-cyano-4-methyl-1H-indol-7-yl)-1,5-dimethyl-pyrazole-4-sulfonamide] are under 250 nM and under 250 nM.
Turning to `Cn1cc(S(=O)(=O)Nc2ccc(C(F)(F)F)c3c(C#N)c[nH]c23)cn1` [Compound 105, N-[3-cyano-4-(trifluoromethyl)-1H-indol-7-yl]-1-methyl-pyrazole-4-sulfonamide], in test [1], the EC50 fell in the range of 250 to 1000 nM. In addition, in test [2], the IC50 is under 250 nM.
The corresponding values for `CC(C)(CO)n1cc(S(=O)(=O)Nc2ccc(F)c3c(C#N)c[nH]c23)c(Cl)n1` [Compound 261, 3-chloro-N-(3-cyano-4-fluoro-1H-indol-7-yl)-1-(2-hydroxy-1,1-dimethyl-ethyl)pyrazole-4-sulfonamide] are over 1000 nM and under 250 nM.
The corresponding values for `Cc1ccc(NS(=O)(=O)c2cnn(C3(CO)CC3)c2)c2[nH]cc(C#N)c12` [Compound 268, N-(3-cyano-4-methyl-1H-indol-7-yl)-1-[1-(hydroxymethyl)cyclopropyl]pyrazole-4-sulfonamide] are under 250 nM and under 250 nM.
In the case of `C[C@H]([C@@H](C)O)n1cc(S(=O)(=O)Nc2ccc(F)c3c(C#N)c[nH]c23)cn1` [Compound 288, N-(3-cyano-4-fluoro-1H-indol-7-yl)-1-[(1R,2R)-2-hydroxy-1-methyl-propyl]pyrazole-4-sulfonamide], the EC50 in test [1] lay within 250 to 1000 nM. Also, the IC50 in test [2] was under 250 nM.
For `N#Cc1c[nH]c2c(NS(=O)(=O)c3cnn([C@H]4C[C@@H](O)C4)c3)ccc(Cl)c12` [Compound 174, N-(4-chloro-3-cyano-1H-indol-7-yl)-1-(3-hydroxycyclobutyl)pyrazole-4-sulfonamide], in test [1], the EC50 is 250 to 1000 nM. Further, the IC50 in test [2] was under 250 nM.
Taken in the same sequence, the figures for `Cc1ccc(NS(=O)(=O)c2cnn(C3CCCC3)c2)c2[nH]cc(C#N)c12` [Compound 88, N-(3-cyano-4-methyl-1H-indol-7-yl)-1-cyclopentyl-pyrazole-4-sulfonamide] were 250 to 1000 nM and under 250 nM.
On to `CC(CO)n1cc(S(=O)(=O)Nc2ccc(Cl)c3c(Cl)c[nH]c23)cn1` (centres unmarked) [Compound 172, N-(3,4-dichloro-1H-indol-7-yl)-1-(2-hydroxy-1-methyl-ethyl)pyrazole-4-sulfonamide], for which the EC50 in test [1] lay in the range of 250 to 1000 nM. The IC50 in test [2] is under 250 nM.
For `COCCOCCn1cc(S(=O)(=O)Nc2cccc3c(Cl)c[nH]c23)cn1` [Compound 23, N-(3-chloro-1H-indol-7-yl)-1-[2-(2-methoxyethoxy)ethyl]pyrazole-4-sulfonamide], in test [1], the EC50 is over 1000 nM. Also, the IC50 in test [2] is under 250 nM.
Take `CC1(Cn2cc(S(=O)(=O)Nc3cccc4c(Cl)c[nH]c34)cn2)CSC1` [Compound 44, N-(3-chloro-1H-indol-7-yl)-1-[(3-methylthietan-3-yl)methyl]pyrazole-4-sulfonamide]: the EC50 in test [1] was over 1000 nM. For the same compound, the IC50 in test [2] was under 250 nM.
As to `N#Cc1c[nH]c2c(NS(=O)(=O)c3cnn(CF)c3N)ccc(F)c12` [Compound 309, 5-amino-N-(3-cyano-4-fluoro-1H-indol-7-yl)-1-(fluoromethyl)pyrazole-4-sulfonamide], the EC50 in test [1] was over 1000 nM. Also, the IC50 in test [2] was under 250 nM.
Taken in the same sequence, the figures for `Cc1ccc(NS(=O)(=O)c2cnn(CC3(F)CN(C(=O)OC(C)(C)C)C3)c2)c2[nH]cc(C#N)c12` [Compound 255, tert-butyl 3-[[4-[(3-cyano-4-methyl-1H-indol-7-yl)sulfamoyl]pyrazol-1-yl]methyl]-3-fluoro-azetidine-1-carboxylate] were 250 to 1000 nM and under 250 nM.
Turning to `N#Cc1c[nH]c2c(NS(=O)(=O)c3cnn(C(F)F)c3)ccc(F)c12` [Compound 215, N-(3-cyano-4-fluoro-1H-indol-7-yl)-1-(difluoromethyl)pyrazole-4-sulfonamide], the EC50 in test [1] lay within 250 to 1000 nM. Besides, the IC50 in test [2] is under 250 nM.
Turning to `Cn1cc(S(=O)(=O)Nc2ccc(Cl)c3c(Cl)c[nH]c23)cn1` [Compound 81, N-(3,4-dichloro-1H-indol-7-yl)-1-methyl-pyrazole-4-sulfonamide], in test [1], the EC50 is under 250 nM. Also, the IC50 in test [2] is under 250 nM.
`Cn1ncc(S(=O)(=O)Nc2ccc(Cl)c3c(C#N)c[nH]c23)c1Cl` [Compound 156, 5-chloro-N-(4-chloro-3-cyano-1H-indol-7-yl)-1-methyl-pyrazole-4-sulfonamide]: the EC50 in test [1] lay within 250 to 1000 nM. The IC50 in test [2] was under 250 nM.
